Results published in patent US12207673B2, “Compounds that modulate fatty acid receptor activity and pet food products containing the same” (MARS, INCORPORATED, priority 2014, dated 2025).

How the values were obtained:
[1] = tested on: CHO/NatClytin/mock+Gα16 (mock) cells; test: Mock control of the agonist/PAM assay with ATP as agonist; assay type: cell-based; details: concentration used as min signal in PAM mode
Method: CHO/NatClytin/fGpr120+Gα16 (fGpr120) cells and CHO/NatClytin/mock+Gα16 (mock) cells were seeded at 5,000 cells/well. 24 hours after cell seeding, cells were loaded with 0.5×Fluo8-NW dye in standard tyrode buffer (20 μl/well) for 1 h at room temperature. The ability of dodecyl dihydrogen phosphate to activate fGPR120 expressed by the CHO cells was determined by measuring fluorescence using a FLIPR® Tetra screening system after contacting the cells with the compound in agonist mode and PAM mode according to the following protocol: • 1. […] PAM mode: injection of 3× dodecyl dihydrogen phosphate (10 μl/well), wherein fluorescence was measured for 3 min. After about 1 additional minute, injection of 3× fGPR120 agonist at a concentration corresponding to the agonist's EC20 (15 μl/well), wherein fluorescence (i.e., PAM activity) was measured for 3 min. The fGPR120 agonist was 1.5 μM α-linolenic acid. For mock controls, 0.2μ ATP was used as the agonist.
Controls for PAM mode experiments—dose response curves of α-linolenic acid (fGpr120) or ATP (mock) (FIGS. 12A and 12B): 100 μM α-linolenic acid (max signal for Gpr120), 1.5 μM α-linolenic acid (EC20, min signal for Gpr120), 30 μM ATP (max signal), 0.2 μM ATP (EC20, min signal).

fGPR120 = fGPR120 agonist mode / PAM mode assay in CHO/NatClytin/fGpr120+Gα16 cells, Fluo8-NW, FLIPR Tetra; assay type: cell-based, feline
Method: Methods: CHO cells that stably express fGPR120 were used to assay dodecyl dihydrogen phosphate for activity as an fGPR120 agonist or PAM.
CHO/NatClytin/fGpr120+Gα16 (fGpr120) cells and CHO/NatClytin/mock+Gα16 (mock) cells were seeded at 5,000 cells/well. 24 hours after cell seeding, cells were loaded with 0.5×Fluo8-NW dye in standard tyrode buffer (20 μl/well) for 1 h at room temperature. The ability of dodecyl dihydrogen phosphate to activate fGPR120 expressed by the CHO cells was determined by measuring fluorescence using a FLIPR® Tetra screening system after contacting the cells with the compound in agonist mode and PAM mode according to the following protocol: • 1. […] For mock controls, 0.2μ ATP was used as the agonist.
The maximum of ΔF/F values measured using the FLIPR® Tetra system were exported and used for data analysis.
The compounds used in the experiments were dissolved 6× in 0.01% BSA (fatty acid-free) and then pre-mixed on compound plates with buffer.
Controls for agonist mode experiments—dose response curves of α-linolenic acid (FIGS. 12A and 12B): 100 μM α-linolenic acid (fGpr120 max signal), 30 μM ATP (max signal), buffer (min signal), buffer+0.01% BSA (min signal).

Nc1ncnc2c1ncn2[C@@H]1O[C@H](COP(=O)(O)OP(=O)(O)OP(=O)(O)O)[C@@H](O)[C@H]1O [ATP]
EC20 of ATP in mock cells [1]: 200 nM

CC/C=C\C/C=C\C/C=C\CCCCCCCC(=O)O [Compound 24, (9Z,12Z,15Z)-octadeca-9,12,15-trienoic acid]
EC20 of the fGPR120 agonist (fGPR120; fGpr120 cells, concentration used as min signal in PAM mode): 1500 nM

CCCCCCCCCCCCOP(=O)(O)O [dodecyl dihydrogen phosphate, Dodecyl dihydrogen phosphate]
modulation of fGPR120 activity as positive allosteric modulator (PAM) (fGPR120; PAM mode, in the presence of an fGPR120 agonist (1.5 μM α-linolenic acid, EC20)): modulated the activity of fGPR120 as a PAM
